Assay results: patent publication US8415393B2, “Anti-bacterial drug targeting of genome maintenance interfaces” (Wisconsin Alumni Research Foundation, priority 2007, dated 2013)
“Also recorded” adds a separate entry of the source. Where two headings read alike, the source gives them in different places. Where no end group is shown, it is not given here. fluorescein = fluorescein moiety attached to the N-terminus of the peptide (N-terminal fluorescein label)

Assays:
[1] = target: Exonuclease I/SSB-Ct complex (Escherichia coli, UniProt P04995); assay: Fluorescence polarization competition: inhibition of fluorescein-SSB C-terminal peptide binding to Exonuclease I (HTS and Ki determination); conditions: for peptide binding inhibition: ExoI/SSB-Ct peptide
Sequence of Exonuclease I/SSB-Ct complex (P04995 whole entry, one chain of several): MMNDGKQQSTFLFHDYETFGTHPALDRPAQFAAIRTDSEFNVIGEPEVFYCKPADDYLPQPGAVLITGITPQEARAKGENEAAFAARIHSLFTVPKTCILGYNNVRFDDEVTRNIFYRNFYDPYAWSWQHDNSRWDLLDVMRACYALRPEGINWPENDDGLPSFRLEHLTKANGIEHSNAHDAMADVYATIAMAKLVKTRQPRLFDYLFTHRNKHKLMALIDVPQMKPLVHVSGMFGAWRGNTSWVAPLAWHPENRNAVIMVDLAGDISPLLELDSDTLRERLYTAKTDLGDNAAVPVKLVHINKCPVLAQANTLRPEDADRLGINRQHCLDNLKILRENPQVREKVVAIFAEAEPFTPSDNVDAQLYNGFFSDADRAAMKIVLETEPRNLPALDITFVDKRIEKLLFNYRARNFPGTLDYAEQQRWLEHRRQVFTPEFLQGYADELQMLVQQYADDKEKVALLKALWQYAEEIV
Protocol: Peptide binding assays were performed in solution, using the peptides from above, and Exonuclease I, in the absence or presence of various compounds. Different amounts of Exonuclease I (ExoI) were used in the peptide binding assays. […] Fluorescence polarization (FP) was measured at 25° C. in triplicate; the average FP value was plotted with standard deviation of the mean shown as error.
Concentrated Exonuclease I was dialyzed overnight into 2 liters dilution buffer (DB) (20 mM Tris pH 8.0 HCl, 100 mM NaCl, 1 mM MgCl2, and 1 mM Beta-Mercaptoethanol). […] After sitting at room temperature for 5 min, a liquid handling system was used to aliquot this solution into 384 well plates providing 30 microliters/well. One microliter of 1 mM compound was then added. The screened compounds were obtained from the ChemBridge DIVERSet library (ChemBridge Corporation, San Diego, Calif.), from the Maybridge HitFinder library (Thermo Fisher Scientific, Waltham, Mass.), from the ChemDiv library (Chemical Diversity Labs, San Diego, Calif.), or from the Known Bioactive Library—KBA01.
The FP (fluorescence polarization) values for each well were read using a (plate reader) 5 minutes after compound addition.
Increasing amounts of compound were titrated into peptide protein mixture until FP values were lowered to values given by only fluorescently labeled peptide alone. Ki values were determined using the Ki calculator for fluorescence-based competitive binding assays of Prof. Shaomeng Wang, University of Michigan (Nikolovska-Coleska et al., 2004, Anal. Biochem. 332: 261-273).

[2] = tested on: E. coli 4213 (imp4213, compromised cell wall); assay: microbe, parasite or virus in culture; assay type: cell-based; conditions: Escherichia coli
Protocol: The compromised cell wall allows the chemicals to pass through it more readily.
(§1) 100 μL of LB containing E. coli 1655, E. coli 4213, or S. aureus at A ˜0.05 OD 600 was aliquoted in 96 well plates. One μL of compound in DMSO was added to final concentrations given. Plates were incubated at 37° C. with shaking at 250 RPM. Rate of growth was calculated by determining the average change in OD/hour that took place between hours 3 and 7 (log growth phase). The graphs shown herein are plots of this bacterial growth rate (change in OD/h) against inhibitor concentration in μM.

[3] = tested on: Staphylococcus aureus 12598; assay: Bacterial growth assay in LB liquid media, S. aureus; assay type: cell-based
Protocol: as §1

[4] = tested on: HT-29 (human colorectal adenocarcinoma) cells; assay: Mammalian cell toxicity, CellTiter-Glo cell viability assay; assay type: cell-based
Protocol: The toxicity of the identified antimicrobial candidate compounds was tested using human colorectal adenocarcinoma cells in vitro. […] The mammalian cells were tested using a CellTiter-Glo cell viability assay (Promega, Madison, Wis.).

red blood cells = assay: In vitro hemolysis; assay type: cell-based; conditions: for % hemolysis at given concentration: 1 hour; for Hemolysis: Table 3, minimum concentration necessary to lyse red blood cells
Protocol: The identified small molecules were incubated with red blood cells to see what percentage of cells would lyse after 1 hour. Estimated hemolysis data are due to problem with reading absorbance, when the compound absorbs at the same wavelength as heme or if the compound precipitates. In such instances it is difficult to quantitate the absorbance readings; however, visual determination of how many cells have lysed can then be performed, which provides an estimate of cell lysis.

[5] = target: T1, fluorescein-labeled SSB C-terminal peptide, fluorescein-WMDFDDDIPF (E. coli); assay: equilibrium fluorescence anisotropy
T1 construct: also called F-WT; F-SSB-Ct
T1 peptide: fluorescein-WMDFDDDIPF

[6] = read-out: IC50 μM inhibitor, inhibition of E. coli growth
[7] = read-out: IC(50) E. coli imp4213
[8] = Staphylococcus aureus, 12598, Table 3, reduce growth 50% in liquid media, unit not given (Table 5 gives μM), read-out: IC(50) S. aureus
[9] = Staphylococcus aureus, 12598, Table 5, read-out: IC50 μM inhibitor, inhibition of S. aureus growth
[10] = HT-29 cells, CellTiter-Glo, read-out: IC50

O=[N+]([O-])c1ccc(Oc2cc(C(F)(F)F)ccc2Cl)cc1O [Compound 37, 5-[2-chloro-5-(trifluoromethyl)phenoxy]-2-nitrophenol]
Ki [1]: 0.7 µM | Ki ([1]; Ki estimates, Table 2): 0.7 µM | IC50 [2, 6]: 33 µM | IC50 [2, 7]: 33 µM | IC50 ([3]; Staphylococcus aureus, 12598, read-out: IC50 μM inhibitor, inhibition of S. aureus growth): 2.5 µM | IC50 ([3]; Staphylococcus aureus, 12598, read-out: IC(50) S. aureus): 2.5 µM | IC50 ([4]; HT-29): > 100 µM | % hemolysis at given concentration (red blood cells; 800 μM): estimated 0% 800 | Hemolysis (red blood cells): >800 µM

Cc1nn(-c2nc3ccccc3s2)c(O)c1C [Compound 28, 1-(1,3-benzothiazol-2-yl)-3,4-dimethyl-1H-pyrazol-5-ol]
peptide binding inhibition [1]: did not inhibit binding | IC50 [2, 6]: 38 µM | IC50 [2, 7]: 38 µM | IC50 ([4]; HT-29): > 100 µM | % hemolysis at given concentration (red blood cells; >800 μM): 0% >800 | Hemolysis (red blood cells): >800 µM

O=C(O)c1ccccc1Nc1cccc(C(F)(F)F)c1 [Compound 32, 2-[3-(trifluoromethyl)anilino]benzoic acid]
Ki [1]: 1.5 µM | Ki ([1]; Ki estimates, Table 2): 1.5 µM | IC50 [2, 6]: 33 µM | IC50 [2, 7]: 33 µM | IC50 [3, 8]: 30 µM | IC50 [3, 9]: 30 µM | IC50 [4, 10]: > 100 µM | % hemolysis at given concentration (red blood cells; >800 μM): 0% >800 | Hemolysis (red blood cells): >800 µM

CC1=NN(c2nc3ccc(Cl)cc3s2)C(=O)C1 [Compound 46, 1-(6-chloro-1,3-benzothiazol-2-yl)-3-methyl-4,5-dihydro-1H-pyrazol-5-one]
Ki [1]: 1.5 µM | Ki ([1]; Ki estimates, Table 2): 1.5 µM | IC50 [4, 10]: 55 µM | % hemolysis at given concentration (red blood cells; >800 μM): 0% >800 | Hemolysis (red blood cells): >800 µM

CC(C)c1cc(O)n(-c2nc3ccccc3s2)n1 [Compound 29, 1-(1,3-benzothiazol-2-yl)-3-isopropyl-1H-pyrazol-5-ol]
peptide binding inhibition [1]: did not inhibit binding | IC50 [2, 6]: 88 µM | IC50 [2, 7]: 88 µM | IC50 ([4]; HT-29): > 100 µM | % hemolysis at given concentration (red blood cells; >800 μM): 0% >800 | Hemolysis (red blood cells): >800 µM

CC1=NN(c2nc3ccccc3s2)C(=O)C1 [Compound 31, 2-(1,3-benzothiazol-2-yl)-5-methyl-2,4-dihydro-3H-pyrazol-3-one]
peptide binding inhibition [1]: much weaker binding; also recorded: did not inhibit binding | IC50 [2, 6]: 50 to 100 µM | IC50 [2, 7]: 50 to 100 µM | % hemolysis at given concentration (red blood cells; >800 μM): 0% >800 | Hemolysis (red blood cells): >800 µM

Cc1noc(C)c1C(=O)Nc1nc2ccc(Cl)cc2s1 [Compound 42, N-(6-chloro-1,3-benzothiazol-2-yl)-3,5-dimethyl-4-isoxazolecarboxamide]
IC50 [3, 8]: 9 µM | IC50 [3, 9]: 9 µM | IC50 [4, 10]: 51 µM | % hemolysis at given concentration (red blood cells; >800 μM): 0% >800 | Hemolysis (red blood cells): >800 µM

B1: ExoI Arg148 Ala variant (enzyme)
chain: MMNDGKQQSTFLFHDYETFGTHPALDRPAQFAAIRTDSEFNVIGEPEVFYCKPADDYLPQPGAVLITGITPQEARAKGENEAAFAARIHSLFTVPKTCILGYNNVRFDDEVTRNIFYRNFYDPYAWSWQHDNSRWDLLDVMRACYALAPEGINWPENDDGLPSFRLEHLTKANGIEHSNAHDAMADVYATIAMAKLVKTRQPRLFDYLFTHRNKHKLMALIDVPQMKPLVHVSGMFGAWRGNTSWVAPLAWHPENRNAVIMVDLAGDISPLLELDSDTLRERLYTAKTDLGDNAAVPVKLVHINKCPVLAQANTLRPEDADRLGINRQHCLDNLKILRENPQVREKVVAIFAEAEPFTPSDNVDAQLYNGFFSDADRAAMKIVLETEPRNLPALDITFVDKRIEKLLFNYRARNFPGTLDYAEQQRWLEHRRQVFTPEFLQGYADELQMLVQQYADDKEKVALLKALWQYAEEIV
notes: peptide-A-site variant; also called R148A; Arg148 variant
fold weaker binding than wild-type ExoI [5]: 10 to 100 fold

B2: ExoI Arg338 Ala variant (enzyme)
chain: MMNDGKQQSTFLFHDYETFGTHPALDRPAQFAAIRTDSEFNVIGEPEVFYCKPADDYLPQPGAVLITGITPQEARAKGENEAAFAARIHSLFTVPKTCILGYNNVRFDDEVTRNIFYRNFYDPYAWSWQHDNSRWDLLDVMRACYALRPEGINWPENDDGLPSFRLEHLTKANGIEHSNAHDAMADVYATIAMAKLVKTRQPRLFDYLFTHRNKHKLMALIDVPQMKPLVHVSGMFGAWRGNTSWVAPLAWHPENRNAVIMVDLAGDISPLLELDSDTLRERLYTAKTDLGDNAAVPVKLVHINKCPVLAQANTLRPEDADRLGINRQHCLDNLKILAENPQVREKVVAIFAEAEPFTPSDNVDAQLYNGFFSDADRAAMKIVLETEPRNLPALDITFVDKRIEKLLFNYRARNFPGTLDYAEQQRWLEHRRQVFTPEFLQGYADELQMLVQQYADDKEKVALLKALWQYAEEIV
notes: basic ridge variant; also called R338A; Arg338 variant
fold binding defect [5]: 3 fold

B3: ExoI Arg316 Ala variant (enzyme)
chain: MMNDGKQQSTFLFHDYETFGTHPALDRPAQFAAIRTDSEFNVIGEPEVFYCKPADDYLPQPGAVLITGITPQEARAKGENEAAFAARIHSLFTVPKTCILGYNNVRFDDEVTRNIFYRNFYDPYAWSWQHDNSRWDLLDVMRACYALRPEGINWPENDDGLPSFRLEHLTKANGIEHSNAHDAMADVYATIAMAKLVKTRQPRLFDYLFTHRNKHKLMALIDVPQMKPLVHVSGMFGAWRGNTSWVAPLAWHPENRNAVIMVDLAGDISPLLELDSDTLRERLYTAKTDLGDNAAVPVKLVHINKCPVLAQANTLAPEDADRLGINRQHCLDNLKILRENPQVREKVVAIFAEAEPFTPSDNVDAQLYNGFFSDADRAAMKIVLETEPRNLPALDITFVDKRIEKLLFNYRARNFPGTLDYAEQQRWLEHRRQVFTPEFLQGYADELQMLVQQYADDKEKVALLKALWQYAEEIV
notes: peptide-A-site variant; also called R316A; Arg316 variant
fold weaker binding than wild-type ExoI [5]: 10 to 100 fold

B4: ExoI Asp319 Ala variant (enzyme)
chain: MMNDGKQQSTFLFHDYETFGTHPALDRPAQFAAIRTDSEFNVIGEPEVFYCKPADDYLPQPGAVLITGITPQEARAKGENEAAFAARIHSLFTVPKTCILGYNNVRFDDEVTRNIFYRNFYDPYAWSWQHDNSRWDLLDVMRACYALRPEGINWPENDDGLPSFRLEHLTKANGIEHSNAHDAMADVYATIAMAKLVKTRQPRLFDYLFTHRNKHKLMALIDVPQMKPLVHVSGMFGAWRGNTSWVAPLAWHPENRNAVIMVDLAGDISPLLELDSDTLRERLYTAKTDLGDNAAVPVKLVHINKCPVLAQANTLRPEAADRLGINRQHCLDNLKILRENPQVREKVVAIFAEAEPFTPSDNVDAQLYNGFFSDADRAAMKIVLETEPRNLPALDITFVDKRIEKLLFNYRARNFPGTLDYAEQQRWLEHRRQVFTPEFLQGYADELQMLVQQYADDKEKVALLKALWQYAEEIV
notes: also called D319A; Asp319 variant
fold binding defect [5]: 2 fold

B5: ExoI Gln311 Ala variant (enzyme)
chain: MMNDGKQQSTFLFHDYETFGTHPALDRPAQFAAIRTDSEFNVIGEPEVFYCKPADDYLPQPGAVLITGITPQEARAKGENEAAFAARIHSLFTVPKTCILGYNNVRFDDEVTRNIFYRNFYDPYAWSWQHDNSRWDLLDVMRACYALRPEGINWPENDDGLPSFRLEHLTKANGIEHSNAHDAMADVYATIAMAKLVKTRQPRLFDYLFTHRNKHKLMALIDVPQMKPLVHVSGMFGAWRGNTSWVAPLAWHPENRNAVIMVDLAGDISPLLELDSDTLRERLYTAKTDLGDNAAVPVKLVHINKCPVLAAANTLRPEDADRLGINRQHCLDNLKILRENPQVREKVVAIFAEAEPFTPSDNVDAQLYNGFFSDADRAAMKIVLETEPRNLPALDITFVDKRIEKLLFNYRARNFPGTLDYAEQQRWLEHRRQVFTPEFLQGYADELQMLVQQYADDKEKVALLKALWQYAEEIV
notes: peptide-A-site variant; also called Q311A; Gln311 variant
fold binding defect relative to wild-type ExoI [5]: 2 fold
